Data reported in article PMC7753147, “High-throughput determination of protein affinities using unmodified peptide libraries in nanomolar scale” (iScience, 2020).

Experiments:
gephE = assay: µSPOT peptide microarray binding assay with recombinant gephE; conditions: µSPOT peptide microarray, GlyRβ full positional scan, recombinant gephE; intensity normalised to wild-type sequence DLRSNDFSIVGSLPR (=1)
native geph = assay: µSPOT peptide microarray binding assay with native geph from mouse brain lysate; conditions: µSPOT peptide microarray, GlyRβ full positional scan, native geph from mouse brain lysate; intensity normalised to wild-type sequence DLRSNDFSIVGSLPR (=1)
FL-geph = assay: µSPOT peptide microarray binding assay with full-length geph; conditions: µSPOT peptide microarray, GlyRβ full positional scan, intensity normalised to wild-type sequence DLRSNDFSIVGSLPR (=1)

Row | Sequence | gephE Binding Intensity [norm.] (gephE) | Native geph Binding Intensity [norm.] (native geph) | Fl-geph Binding Intensity [norm.] (FL-geph)
1 | ALRSNDFSIVGSLPR [GlyRβ_Full_Positional_Scan_001] | 1.06 norm. | 0.77 norm. | 1.11 norm.
2 | CLRSNDFSIVGSLPR [GlyRβ_Full_Positional_Scan_017] | 1.12 norm. | 0.99 norm. | 0.88 norm.
3 | DARSNDFSIVGSLPR [GlyRβ_Full_Positional_Scan_021] | 1.01 norm. | 0.95 norm. | 1.04 norm.
4 | DCRSNDFSIVGSLPR [GlyRβ_Full_Positional_Scan_037] | 0.95 norm. | 1.22 norm. | 0.9 norm.
5 | DDRSNDFSIVGSLPR [GlyRβ_Full_Positional_Scan_030] | 1.07 norm. | 0.9 norm. | 1.26 norm.
6 | DERSNDFSIVGSLPR [GlyRβ_Full_Positional_Scan_031] | 0.98 norm. | 0.92 norm. | 1.01 norm.
7 | DFRSNDFSIVGSLPR [GlyRβ_Full_Positional_Scan_027] | 0.98 norm. | 0.91 norm. | 0.99 norm.
8 | DGRSNDFSIVGSLPR [GlyRβ_Full_Positional_Scan_022] | 0.98 norm. | 0.92 norm. | 0.94 norm.
9 | DHRSNDFSIVGSLPR [GlyRβ_Full_Positional_Scan_033] | 0.91 norm. | 0.98 norm. | 0.95 norm.
10 | DIRSNDFSIVGSLPR [GlyRβ_Full_Positional_Scan_023] | 0.95 norm. | 1.16 norm. | 1.12 norm.
11 | DKRSNDFSIVGSLPR [GlyRβ_Full_Positional_Scan_034] | 0.88 norm. | 0.53 norm. | 0.94 norm.
12 | DLASNDFSIVGSLPR [GlyRβ_Full_Positional_Scan_041] | 0.95 norm. | 1.3 norm. | 1.13 norm.
13 | DLCSNDFSIVGSLPR [GlyRβ_Full_Positional_Scan_057] | 0.88 norm. | 1.41 norm. | 1.14 norm.
14 | DLDSNDFSIVGSLPR [GlyRβ_Full_Positional_Scan_050] | 1.09 norm. | 1.45 norm. | 1.38 norm.
15 | DLESNDFSIVGSLPR [GlyRβ_Full_Positional_Scan_051] | 1.03 norm. | 1.3 norm. | 1.39 norm.
16 | DLFSNDFSIVGSLPR [GlyRβ_Full_Positional_Scan_047] | 0.89 norm. | 1.18 norm. | 1.29 norm.
17 | DLGSNDFSIVGSLPR [GlyRβ_Full_Positional_Scan_042] | 0.93 norm. | 1.26 norm. | 1.02 norm.
18 | DLHSNDFSIVGSLPR [GlyRβ_Full_Positional_Scan_053] | 1.01 norm. | 1.37 norm. | 1.21 norm.
19 | DLISNDFSIVGSLPR [GlyRβ_Full_Positional_Scan_043] | 0.9 norm. | 1.69 norm. | 1.35 norm.
20 | DLKSNDFSIVGSLPR [GlyRβ_Full_Positional_Scan_054] | 1.01 norm. | 1.21 norm. | 1.24 norm.
21 | DLLSNDFSIVGSLPR [GlyRβ_Full_Positional_Scan_044] | 0.95 norm. | 1.48 norm. | 1.28 norm.
22 | DLMSNDFSIVGSLPR [GlyRβ_Full_Positional_Scan_058] | 0.77 norm. | 1.59 norm. | 1.3 norm.
23 | DLNSNDFSIVGSLPR [GlyRβ_Full_Positional_Scan_059] | 0.85 norm. | 1.28 norm. | 1.17 norm.
24 | DLPSNDFSIVGSLPR [GlyRβ_Full_Positional_Scan_045] | 0.93 norm. | 1.5 norm. | 1.47 norm.
25 | DLQSNDFSIVGSLPR [GlyRβ_Full_Positional_Scan_060] | 0.91 norm. | 1.3 norm. | 1.06 norm.
26 | DLRANDFSIVGSLPR [GlyRβ_Full_Positional_Scan_061] | 0.98 norm. | 1.12 norm. | 0.86 norm.
27 | DLRCNDFSIVGSLPR [GlyRβ_Full_Positional_Scan_077] | 0.99 norm. | 0.77 norm. | 0.65 norm.
28 | DLRDNDFSIVGSLPR [GlyRβ_Full_Positional_Scan_070] | 0.95 norm. | 1.34 norm. | 1.09 norm.
29 | DLRENDFSIVGSLPR [GlyRβ_Full_Positional_Scan_071] | 0.93 norm. | 1.11 norm. | 0.97 norm.
30 | DLRFNDFSIVGSLPR [GlyRβ_Full_Positional_Scan_067] | 0.92 norm. | 0.98 norm. | 0.92 norm.
